This is an account of results in DBAASP.

In brackets after ≈: the same amount, converted by molar mass.

What all share (assay): ≥ marks a high value that may be exact or a test limit, other limits are often not marked, values filed in µg/mL are converted to µM
Experiment [1] concerns Acinetobacter baumannii 4-MRGN.
The test system of experiment [2] is Enterococcus faecium.
For experiment [3], the system named is Pseudomonas aeruginosa ATCC 27853.
In experiment [4] the test system is Mycobacterium tuberculosis CAS3.
Experiment [5] relates to Mycobacterium tuberculosis H37Rv.
The subject of experiment [6] is Mycobacterium tuberculosis WXY.
Experiment [7] concerns Escherichia coli CIP 54.8T.
The subject of experiment [8] is Legionella pneumophila Lens.
Experiment [9] deals with Enterococcus faecalis VR.
Experiment [10] has as its system Enterococcus faecalis.
The subject of experiment [11] is Escherichia coli ATCC 25922.
For experiment [12], the system named is Escherichia coli ATCC BAA-2523.
In experiment [13] the test system is Pseudomonas aeruginosa.
For experiment [14], the system named is Staphylococcus aureus ATCC 29213.
In experiment [15] the test system is Staphylococcus aureus ATCC 43300.
Experiment [16] relates to Acinetobacter baumannii ATCC BAA-1605.
The subject of experiment [17] is Acinetobacter baumannii KCCM 1053.
Experiment [18] deals with Bacillus subtilis KCTC 3068.
Experiment [19] has as its system Enterococcus faecalis ATCC 51575.
In experiment [20] the test system is Enterococcus faecalis KCCM 11814.
For experiment [21], the system named is Escherichia coli KCTC 1682.
Experiment [22] relates to Pseudomonas aeruginosa CCARM 2180.
For experiment [23], the system named is Pseudomonas aeruginosa KCTC 1637.
In experiment [24] the test system is Salmonella typhimurium KCTC 1926.
The subject of experiment [25] is Staphylococcus aureus KCCM 40510.
Experiment [26] concerns Staphylococcus aureus KCTC 1621.
Experiment [27] concerns Staphylococcus epidermidis KCTC 1917.
In experiment [28] the test system is Acinetobacter baumannii.
The test system of experiment [29] is Enterococcus sp.
The subject of experiment [30] is Escherichia coli ESBL.
Experiment [31] has as its system Klebsiella pneumoniae.
In experiment [32] the test system is Staphylococcus aureus.
Experiment [33] deals with Staphylococcus epidermidis.

For orientation: MIC means the least concentration at which growth counts as inhibited. Higher therefore signals a less susceptible organism. As for `CC[C@H](C)[C@H](NC(=O)[C@H](CCC(=O)O)NC(=O)[C@@H]1CSSC[C@@H]2NC(=O)[C@H](Cc3ccc(O)cc3)NC(=O)[C@@H](NC(=O)[C@@H](NC(=O)[C@H](C)N)[C@@H](C)O)CSSC[C@H](NC(=O)[C@H](CCCN=C(N)N)NC(=O)CNC(=O)[C@H]([C@@H](C)O)NC(=O)[C@H](CCCN=C(N)N)NC2=O)C(=O)N[C@@H](C)C(=O)N[C@@H]([C@@H](C)O)C(=O)N[C@@H](CCCN=C(N)N)C(=O)N[C@@H](CCC(=O)O)C(=O)N[C@@H](CO)C(=O)N[C@@H](CC(C)C)C(=O)N[C@@H](CO)C(=O)NCC(=O)N[C@@H](C(C)C)C(=O)N1)C(=O)N[C@@H](CO)C(=O)NCC(=O)N[C@@H](CCCN=C(N)N)C(=O)N[C@@H](CC(C)C)C(=O)N[C@@H](Cc1ccc(O)cc1)C(=O)N[C@@H](CCCN=C(N)N)C(=O)O` [ATCYCRTGRCATRESLSGVCEISGRLYR], the MIC in experiment [1] is not below 99.9 µM; in [2] it was not below 99.9 µM; in experiment [3], more than 99.9 µM.
As to `CC(C)C[C@H](NC(=O)[C@H](CC(C)C)NC(=O)[C@H](CCCCN)NC(=O)[C@H](CCCCN)NC(=O)[C@@H](NC(=O)[C@H](C)N)C(C)C)C(=O)N[C@@H](C)C(=O)N[C@@H](C)C(=O)N[C@@H](C)C(=O)N[C@@H](CO)C(=O)N[C@@H](C)C(=O)N[C@@H](C)C(=O)N[C@@H](C)C(=O)N[C@@H](CCCCN)C(=O)N[C@@H](CCCCN)C(=O)O` [AVKKLLAAASAAAKK], the MIC in [4], in experiment [5] and in experiment [6] was not below 139 µM each time.
In the case of `CC[C@H](C)[C@H](NC(=O)[C@H](Cc1cnc[nH]1)NC(=O)[C@H](Cc1cnc[nH]1)NC(=O)[C@H](Cc1ccccc1)NC(=O)[C@@H](NC(=O)[C@H](CCCCN)NC(=O)[C@@H](NC(=O)[C@@H](N)Cc1ccccc1)[C@@H](C)CC)[C@@H](C)CC)C(=O)N[C@@H](Cc1ccccc1)C(=O)N[C@@H](CCCCN)C(=O)NCC(=O)N[C@@H](CC(N)=O)C(=O)N1CCC[C@H]1C(=O)N[C@@H](CCCCN)C(=O)N[C@@H](Cc1ccccc1)C(=O)N[C@@H](CO)C(=O)N[C@H](C(=O)N[C@H](C(=O)N[C@@H](CCCCN)C(=O)O)[C@@H](C)CC)[C@@H](C)CC` [FIKIFHHIFKGNPKFSIIK], the minimal inhibitory concentration (MIC) in experiment [7] is not below 150 µM.
For the compound `CC[C@H](C)[C@H](NC(=O)[C@H](CC(C)C)NC(=O)[C@H](CCCCN)NC(=O)[C@H](CCCCN)NC(=O)[C@@H](NC(=O)[C@@H](NC(=O)[C@H](CCC(=O)O)NC(=O)[C@@H](NC(=O)[C@@H](NC(=O)[C@H](CCCCN)NC(=O)[C@H](C)NC(=O)[C@@H](NC(=O)[C@@H](NC(=O)[C@H](CC(=O)O)NC(=O)[C@H](C)NC(=O)[C@@H](N)CCSC)C(C)C)[C@@H](C)CC)[C@@H](C)CC)C(C)C)[C@@H](C)CC)C(C)C)C(=O)N[C@@H](CC(=O)O)C(=O)N[C@@H](CCC(N)=O)C(=O)N[C@@H](Cc1ccccc1)C(=O)N[C@H](C(=O)N[C@@H](CCC(N)=O)C(=O)N[C@@H](CCCCN)C(=O)O)[C@@H](C)O` [MADVIAKIVEIVKKLIDQFTQK], the MIC in experiment [8] was determined as 0.62 µM (≈ 1.57 µg/mL).
Take `CC(C)C[C@H](NC(=O)[C@@H](N)CCC(N)=O)C(=O)NCC(=O)N[C@@H](CCCCN)C(=O)N[C@@H](CCCCN)C(=O)N[C@@H](CCCCN)C(=O)N[C@@H](Cc1cnc[nH]1)C(=O)N[C@@H](CCCN=C(N)N)C(=O)N[C@@H](CCCN=C(N)N)C(=O)N[C@@H](CCCN=C(N)N)C(=O)N1CCC[C@H]1C(=O)N[C@@H](CO)C(=O)N[C@@H](CCCCN)C(=O)N[C@@H](CCCCN)C(=O)N[C@@H](CCCCN)C(=O)N[C@@H](CCCN=C(N)N)C(=O)N[C@@H](Cc1cnc[nH]1)C(=O)N[C@@H](Cc1c[nH]c2ccccc12)C(=O)O` [QLGKKKHRRRPSKKKRHW]: the MIC in experiment [9] is not below 128 µM; in experiment [10], not below 128 µM; in [11], more than 128 µM; in experiment [12], not below 128 µM; in experiment [3] it was more than 128 µM; in experiment [13] it was more than 128 µM. Further, the MIC in experiment [14] and in experiment [15] was 128 µM (≈ 301 µg/mL) in each case.
Take `CC[C@H](C)[C@@H]1NC(=O)[C@H](CCCN=C(N)N)NC(=O)[C@@H](NC(=O)[C@H](CC(C)C)NC(=O)[C@@H](N)CCCN=C(N)N)CSSC[C@@H](C(=O)N[C@@H](CCCN=C(N)N)C(=O)O)NC(=O)[C@H](Cc2c[nH]c3ccccc23)NC(=O)[C@H](CCCN=C(N)N)NC(=O)[C@H]([C@@H](C)CC)NC(=O)[C@H](Cc2c[nH]c3ccccc23)NC(=O)[C@H](Cc2c[nH]c3ccccc23)NC1=O` [RLCRIWWIRWCR]: the MIC in experiment [16] is not below 64 µM; in experiment [17], 22.6 µM (≈ 39.5 µg/mL); in experiment [18], not below 32 µM; in experiment [19] it was 11.3 µM (≈ 19.7 µg/mL); in experiment [20] it was not below 32 µM; in [21], 2.83 µM (≈ 4.94 µg/mL). The MIC is not below 64 µM in experiment [22]; 4 µM (≈ 6.98 µg/mL) in experiment [23]; 8 µM (≈ 14 µg/mL) in experiment [24]; 22.6 µM (≈ 39.5 µg/mL) in experiment [25]; 16 µM (≈ 27.9 µg/mL) in experiment [26]; 8 µM (≈ 14 µg/mL) in [27].
On to `CC(C)C[C@H](NC(=O)CNC(=O)[C@H](CCCCN)NC(=O)[C@@H](NC(=O)[C@H](CCCCN)NC(=O)[C@H](CCCCN)NC(=O)[C@@H](NC(=O)[C@@H](NC(=O)[C@H](CCCCN)NC(=O)[C@@H](NC(=O)[C@H](CCCCN)NC(=O)CNC(=O)[C@H](CCCN=C(N)N)NC(=O)[C@H](Cc1ccc(O)cc1)NC(=O)[C@H](CC(C)C)NC(=O)[C@H](CCCCN)NC(=O)CNC(=O)[C@H](Cc1ccccc1)NC(=O)[C@@H](N)Cc1c[nH]c2ccccc12)[C@@H](C)O)C(C)C)C(C)C)C(C)C)C(=O)N[C@@H](CC(C)C)C(=O)N[C@@H](CCCCN)C(=O)NCC(=O)O` [WFGKLYRGKTKVVKKVKGLLKG], for which the MIC in experiment [28] came out at 2.47 µM (≈ 6.25 µg/mL); in experiment [29] it was 9.87 µM (≈ 25 µg/mL); in experiment [30] it was 2.47 µM (≈ 6.25 µg/mL); in experiment [31], 4.93 µM (≈ 12.5 µg/mL); in experiment [13] it was 4.93 µM (≈ 12.5 µg/mL); in [32] it was 9.87 µM (≈ 25 µg/mL). Besides, in experiment [33], the MIC worked out at 9.87 µM (≈ 25 µg/mL).
